pIC50: −log10 of the molar value.
How the values were obtained:
osteoclast formation = molecular target: osteoclast formation
Protocol: Cytochemical staining for TRAP is widely used for identifying osteoclasts in vivo and in vitro. Naphthol AS-MX phosphate 5 mg. Sigma, St. Louis, Mo.) is resolved in 0.5 ml of N,N-dimethylformamide (Wako). Thirty milligrams of fast red violet LB salt (Sigma) and 50 ml of 0.1 M sodium acetate buffer (pH 5.0) containing 50 mM sodium tartratet are added to the mixture (the TRAP-staining solution). Cells are fixed with 3.7% (v/v) formaldehyde in Ca^2−- and Mg^2+-free phosphate-buffered saline [PBS(−)] for 10 min. fixed again with ethanol-acetone (50:50, v:v) for 1 min. and incubated with the TRAP-staining solution for 10 min. at room temperature. TRAP-positive osteoclasts appear as red cells. The incubation period longer than 10 min. should be avoided since cells other than osteoclasts become weakly positive with time. After staining, cells are washed with distilled water, and TRAP-positive multinucleated cells having three or more nuclei are counted as osteoclasts under a microscope.

L929 lymphocytes = conditions: Takasaki et al. 1997; cited from earlier work
[1] = system: TRANCE-induced marrow cultures; test: TRANCE-induced marrow cultures; format: cell-based; conditions: reciprocal dose-dependence of WP9QY and TRANCE
Protocol: This peptide (5-500 μM) was tested for its effect on osteoclast formation using the co-culture system induced by 1,250H2D3 and PGE2. […] There was a reciprocal dose-dependence of WP9QY and TRANCE. Thus, WP9QY is capable of interfering not only with TNF/TNF receptor (1) interaction but also with RANK Ligand/RANK interaction, thereby decreasing the osteoclastogenic potential of this cytokine.

[2] = molecular target: TNF-related activation-induced cytokine (TRANCE); test: cell-based or functional assay

Compound | IC50 osteoclastogenesis relative to IC50 TNF/TNF receptor (1) interaction (osteoclast formation; 250 μM vs 5 μM) [fold] | effect on osteoclastogenesis (osteoclast formation; co-culture system, peptide 5-500 μM) | pIC50 (osteoclast formation; read-out: IC50, inhibition of osteoclastogenesis, co-culture system induced by 1,250H2D3 and PGE2, peptide 5-500 μM) | antagonism of effects of TNF-binding to TNF-α receptor (1) (L929 lymphocytes) | effect on TRANCE-induced marrow cultures [1] | osteoclast formation in the co-culture system induced by 1,25(OH)2D3 and PGE2 (IC50) [2] [µM]
CC(C)C[C@@H]1NC(=O)[C@H](Cc2ccc(O)cc2)NC(=O)[C@H](CCC(N)=O)NC(=O)[C@H](CO)NC(=O)[C@H](Cc2c[nH]c3ccccc23)NC(=O)[C@@H](NC(=O)[C@@H](N)Cc2ccc(O)cc2)CSSC[C@@H](C(=O)N[C@@H](Cc2ccc(O)cc2)C(=O)O)NC1=O [WP9QY] | 50 | dose- and time-dependently inhibited | 3.60 | efficiently antagonized | inhibits TRANCE-induced marrow cultures | –
WP9QY (peptide) | – | – | – | – | – | 250
